Results as given in the NIST ThermoML archive (doi:10.1016/j.fluid.2018.10.006).
± gives the expanded uncertainty stated by the source.

Details: 525.42 K, Fluid (supercritical or subcritical phases), Coaxial cylinder method

CCCCCC [hexane]
Details	thermal conductivity [W/m/K]
2500 kPa	0.04372 ± 0.0022
2740 kPa	0.04444 ± 0.0022
2850 kPa	0.04444 ± 0.0022
3000 kPa	0.04701 ± 0.0023
3050 kPa	0.04756 ± 0.0024
3100 kPa	0.04855 ± 0.0024
3150 kPa	0.04855 ± 0.0024
3200 kPa	0.04958 ± 0.0024
3250 kPa	0.05034 ± 0.0025
3300 kPa	0.05065 ± 0.0025
3350 kPa	0.05177 ± 0.0025
3400 kPa	0.05311 ± 0.0026
3450 kPa	0.0538 ± 0.0026
3500 kPa	0.05526 ± 0.0027
3550 kPa	0.05659 ± 0.0027
3600 kPa	0.05777 ± 0.0028
3650 kPa	0.059 ± 0.0028
3700 kPa	0.0603 ± 0.0029
3750 kPa	0.06164 ± 0.0029
3800 kPa	0.06281 ± 0.003
3850 kPa	0.06378 ± 0.003
3900 kPa	0.06477 ± 0.0031
4000 kPa	0.06632 ± 0.0031
4100 kPa	0.06685 ± 0.0032
4200 kPa	0.06685 ± 0.0032
4300 kPa	0.06685 ± 0.0032
4400 kPa	0.06684 ± 0.0032
4500 kPa	0.06684 ± 0.0032
4600 kPa	0.06684 ± 0.0032
4700 kPa	0.06683 ± 0.0032
4800 kPa	0.06683 ± 0.0032
4900 kPa	0.06848 ± 0.0032
5000 kPa	0.06848 ± 0.0032
5100 kPa	0.06848 ± 0.0032
5200 kPa	0.06848 ± 0.0032
5300 kPa	0.07141 ± 0.0033
5400 kPa	0.07172 ± 0.0034
5500 kPa	0.07172 ± 0.0034
5600 kPa	0.07172 ± 0.0034
5700 kPa	0.07203 ± 0.0034
5800 kPa	0.07203 ± 0.0034
5900 kPa	0.07218 ± 0.0034
6000 kPa	0.07233 ± 0.0034
6100 kPa	0.07249 ± 0.0034
6200 kPa	0.07249 ± 0.0034
6300 kPa	0.07265 ± 0.0034
6400 kPa	0.07281 ± 0.0034
6500 kPa	0.0728 ± 0.0034
6600 kPa	0.07296 ± 0.0034
6700 kPa	0.07312 ± 0.0034
6800 kPa	0.07328 ± 0.0034
6900 kPa	0.07348 ± 0.0034
7000 kPa	0.07361 ± 0.0034
7100 kPa	0.07377 ± 0.0034
7200 kPa	0.07393 ± 0.0034
7317 kPa	0.0741 ± 0.0034
7328 kPa	0.07412 ± 0.0034
7405 kPa	0.07412 ± 0.0034
7500 kPa	0.07428 ± 0.0035
7600 kPa	0.07445 ± 0.0035
7700 kPa	0.07462 ± 0.0035
7800 kPa	0.07478 ± 0.0035
7900 kPa	0.07482 ± 0.0035
8000 kPa	0.07495 ± 0.0035
8100 kPa	0.07512 ± 0.0035
8200 kPa	0.07529 ± 0.0035
8300 kPa	0.07546 ± 0.0035
8400 kPa	0.07546 ± 0.0035
8500 kPa	0.07546 ± 0.0035
8600 kPa	0.07563 ± 0.0035
8700 kPa	0.07583 ± 0.0035
8800 kPa	0.07597 ± 0.0035
8900 kPa	0.07614 ± 0.0035
9000 kPa	0.07632 ± 0.0035
9100 kPa	0.07632 ± 0.0035
9200 kPa	0.07649 ± 0.0036
9300 kPa	0.07667 ± 0.0036
9400 kPa	0.07674 ± 0.0036
9500 kPa	0.07684 ± 0.0036
9600 kPa	0.07701 ± 0.0036
9700 kPa	0.07712 ± 0.0036
9800 kPa	0.07726 ± 0.0036
